Tested on: yeast genes (expressed mRNA)
Test: DNA chip measurement of expressed mRNA of yeast genes after culture with a toxic chemical substance
Format: cell-based, Saccharomyces cerevisiae S288C
Details: for level of expressed mRNA in the presence of chemical substance / level in the absence of chemical substance: cultured two hours with the chemical substance; for The level of expressed mRNA in the presence of chemical substance/The level of expressed mRNA in the absence of chemical substance: cultured two hours with substance
How it was run: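 Two-hour exposure of growing S. cerevisiae S288C (YPD, 25° C) to a sublethal toxicant preceded RNA isolation. Fluorescent cDNA was hybridized to a whole-genome array; a treated-to-untreated signal ratio of two or more was taken as significant.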

Cl[C@H]1[C@H](Cl)[C@@H](Cl)[C@@H](Cl)[C@H](Cl)[C@H]1Cl [(7), γ-Hexachlorocyclohexane]
level of expressed mRNA in the presence of chemical substance / level in the absence of chemical substance (yeast gene YNL058C): 0.7
level of expressed mRNA in the presence of chemical substance / level in the absence of chemical substance (yeast gene YNL063W): 1.4
The level of expressed mRNA in the presence of chemical substance/The level of expressed mRNA in the absence of chemical substance (yeast gene YNL074C): 1.1
The level of expressed mRNA in the presence of chemical substance/The level of expressed mRNA in the absence of chemical substance (yeast gene YNL092W): 1.6
The level of expressed mRNA in the presence of chemical substance/The level of expressed mRNA in the absence of chemical substance (yeast gene YNL115C): 2.4
The level of expressed mRNA in the presence of chemical substance/The level of expressed mRNA in the absence of chemical substance (yeast gene YNL156C): 1.9
level of expressed mRNA in the presence of chemical substance / level in the absence of chemical substance (yeast gene YNL176C): 0.7
level of expressed mRNA in the presence of chemical substance / level in the absence of chemical substance (yeast gene YNL194C): 1.5
level of expressed mRNA in the presence of chemical substance / level in the absence of chemical substance (yeast gene YNL200C): 1.2
The level of expressed mRNA in the presence of chemical substance/The level of expressed mRNA in the absence of chemical substance (yeast gene YNL234W): 1.2
level of expressed mRNA in the presence of chemical substance / level in the absence of chemical substance (yeast gene YNL253W): 1.3
level of expressed mRNA in the presence of chemical substance / level in the absence of chemical substance (yeast gene YNL276C): 0.9
The level of expressed mRNA in the presence of chemical substance/The level of expressed mRNA in the absence of chemical substance (yeast gene YNL281W): 1.2
The level of expressed mRNA in the presence of chemical substance/The level of expressed mRNA in the absence of chemical substance (yeast gene YNL305C): 1.7
level of expressed mRNA in the presence of chemical substance / level in the absence of chemical substance (yeast gene YNR051C): 1.3
The level of expressed mRNA in the presence of chemical substance/The level of expressed mRNA in the absence of chemical substance (yeast gene YNR068C): 1.8
level of expressed mRNA in the presence of chemical substance / level in the absence of chemical substance (yeast gene YOL026C): 1.8
The level of expressed mRNA in the presence of chemical substance/The level of expressed mRNA in the absence of chemical substance (yeast gene YOL032W): 1.4
The level of expressed mRNA in the presence of chemical substance/The level of expressed mRNA in the absence of chemical substance (yeast gene YOL036W): 1.0
The level of expressed mRNA in the presence of chemical substance/The level of expressed mRNA in the absence of chemical substance (yeast gene YOL047C): 1.3
The level of expressed mRNA in the presence of chemical substance/The level of expressed mRNA in the absence of chemical substance (yeast gene YOL071W): 2.0
The level of expressed mRNA in the presence of chemical substance/The level of expressed mRNA in the absence of chemical substance (yeast gene YOL082W): 2.5
The level of expressed mRNA in the presence of chemical substance/The level of expressed mRNA in the absence of chemical substance (yeast gene YOL083W): 3.1
The level of expressed mRNA in the presence of chemical substance/The level of expressed mRNA in the absence of chemical substance (yeast gene YOL117W): 1.6
The level of expressed mRNA in the presence of chemical substance/The level of expressed mRNA in the absence of chemical substance (yeast gene YOL131W): 1.3
The level of expressed mRNA in the presence of chemical substance/The level of expressed mRNA in the absence of chemical substance (yeast gene YOL150C): 2.4
The level of expressed mRNA in the presence of chemical substance/The level of expressed mRNA in the absence of chemical substance (yeast gene YOL162W): 2.0
The level of expressed mRNA in the presence of chemical substance/The level of expressed mRNA in the absence of chemical substance (yeast gene YOR019W): 2.8
level of expressed mRNA in the presence of chemical substance / level in the absence of chemical substance (yeast gene YOR022C): 1.6
level of expressed mRNA in the presence of chemical substance / level in the absence of chemical substance (yeast gene YOR087W): 0.9
level of expressed mRNA in the presence of chemical substance / level in the absence of chemical substance (yeast gene YOR138C): 1.1
The level of expressed mRNA in the presence of chemical substance/The level of expressed mRNA in the absence of chemical substance (yeast gene YOR197W): 0.9
level of expressed mRNA in the presence of chemical substance / level in the absence of chemical substance (yeast gene YOR253W): 1.3
level of expressed mRNA in the presence of chemical substance / level in the absence of chemical substance (yeast gene YOR267C): 0.9
level of expressed mRNA in the presence of chemical substance / level in the absence of chemical substance (yeast gene YOR325W): 1.2
level of expressed mRNA in the presence of chemical substance / level in the absence of chemical substance (yeast gene YPL005W): 2.0
The level of expressed mRNA in the presence of chemical substance/The level of expressed mRNA in the absence of chemical substance (yeast gene YPL087W): 4.2
level of expressed mRNA in the presence of chemical substance / level in the absence of chemical substance (yeast gene YPL150W): 1.2
level of expressed mRNA in the presence of chemical substance / level in the absence of chemical substance (yeast gene YPL152W): 1.3
level of expressed mRNA in the presence of chemical substance / level in the absence of chemical substance (yeast gene YPL168W): 1.2
level of expressed mRNA in the presence of chemical substance / level in the absence of chemical substance (yeast gene YPL180W): 1.0
level of expressed mRNA in the presence of chemical substance / level in the absence of chemical substance (yeast gene YPL188W): 1.3
The level of expressed mRNA in the presence of chemical substance/The level of expressed mRNA in the absence of chemical substance (yeast gene YPL196W): 2.4
The level of expressed mRNA in the presence of chemical substance/The level of expressed mRNA in the absence of chemical substance (yeast gene YPL206C): 1.2
level of expressed mRNA in the presence of chemical substance / level in the absence of chemical substance (yeast gene YPL221W): 1.3
The level of expressed mRNA in the presence of chemical substance/The level of expressed mRNA in the absence of chemical substance (yeast gene YPL222W): 1.1
level of expressed mRNA in the presence of chemical substance / level in the absence of chemical substance (yeast gene YPL225W): 1.7
The level of expressed mRNA in the presence of chemical substance/The level of expressed mRNA in the absence of chemical substance (yeast gene YPR023C): 1.2
level of expressed mRNA in the presence of chemical substance / level in the absence of chemical substance (yeast gene YPR049C): 1.1
level of expressed mRNA in the presence of chemical substance / level in the absence of chemical substance (yeast gene YPR146C): 1.0
level of expressed mRNA in the presence of chemical substance / level in the absence of chemical substance (yeast gene YPR148C): 1.6
The level of expressed mRNA in the presence of chemical substance/The level of expressed mRNA in the absence of chemical substance (yeast gene YPR151C): 4.4
level of expressed mRNA in the presence of chemical substance / level in the absence of chemical substance (yeast gene YPR172W): 1.2
